The text below walks through data of publication PMC4753070 (Bioorganic & medicinal chemistry letters, 2016).

Structures are written as SMILES. Entries after “also recorded” stand apart in the source; their conditions may differ.

In data set [1] the test system is histone H3K9 acetylation in mouse forebrain primary neuronal cultures. The data set can be described thus: Neuronal histone acetylation assay, H3K9ac immunofluorescence. Type of data set: cell-based. As to conditions: 1 and 10 μM, 24 hrs, relative to SAHA.
The subject of data set [2] is histone H4K12 acetylation in mouse forebrain primary neuronal cultures. The data set can be described thus: Neuronal histone acetylation assay, H4K12ac immunofluorescence. Type of data set: cell-based. As to conditions: 1 and 10 μM, 24 hrs, relative to SAHA.
For the next data set, the target named is HDAC5 (Homo sapiens, UniProt Q9UQL6). The data set can be described thus: In vitro HDAC5. Type of data set: biochemical.
Data set [3] can be described thus: Mouse plasma pharmacokinetics and brain-to-plasma ratio. The class given is in vivo.
Data set [4] concerns recombinant human HDAC1-3. In words: In vitro HDAC1-3 inhibition, potency comparison across the three isoforms. The class given is biochemical.
The conditions of data set [5]: mouse, intraperitoneal 25 mg/kg; cited from earlier work.

Chain of HDAC5 (Q9UQL6 whole entry, species assumed): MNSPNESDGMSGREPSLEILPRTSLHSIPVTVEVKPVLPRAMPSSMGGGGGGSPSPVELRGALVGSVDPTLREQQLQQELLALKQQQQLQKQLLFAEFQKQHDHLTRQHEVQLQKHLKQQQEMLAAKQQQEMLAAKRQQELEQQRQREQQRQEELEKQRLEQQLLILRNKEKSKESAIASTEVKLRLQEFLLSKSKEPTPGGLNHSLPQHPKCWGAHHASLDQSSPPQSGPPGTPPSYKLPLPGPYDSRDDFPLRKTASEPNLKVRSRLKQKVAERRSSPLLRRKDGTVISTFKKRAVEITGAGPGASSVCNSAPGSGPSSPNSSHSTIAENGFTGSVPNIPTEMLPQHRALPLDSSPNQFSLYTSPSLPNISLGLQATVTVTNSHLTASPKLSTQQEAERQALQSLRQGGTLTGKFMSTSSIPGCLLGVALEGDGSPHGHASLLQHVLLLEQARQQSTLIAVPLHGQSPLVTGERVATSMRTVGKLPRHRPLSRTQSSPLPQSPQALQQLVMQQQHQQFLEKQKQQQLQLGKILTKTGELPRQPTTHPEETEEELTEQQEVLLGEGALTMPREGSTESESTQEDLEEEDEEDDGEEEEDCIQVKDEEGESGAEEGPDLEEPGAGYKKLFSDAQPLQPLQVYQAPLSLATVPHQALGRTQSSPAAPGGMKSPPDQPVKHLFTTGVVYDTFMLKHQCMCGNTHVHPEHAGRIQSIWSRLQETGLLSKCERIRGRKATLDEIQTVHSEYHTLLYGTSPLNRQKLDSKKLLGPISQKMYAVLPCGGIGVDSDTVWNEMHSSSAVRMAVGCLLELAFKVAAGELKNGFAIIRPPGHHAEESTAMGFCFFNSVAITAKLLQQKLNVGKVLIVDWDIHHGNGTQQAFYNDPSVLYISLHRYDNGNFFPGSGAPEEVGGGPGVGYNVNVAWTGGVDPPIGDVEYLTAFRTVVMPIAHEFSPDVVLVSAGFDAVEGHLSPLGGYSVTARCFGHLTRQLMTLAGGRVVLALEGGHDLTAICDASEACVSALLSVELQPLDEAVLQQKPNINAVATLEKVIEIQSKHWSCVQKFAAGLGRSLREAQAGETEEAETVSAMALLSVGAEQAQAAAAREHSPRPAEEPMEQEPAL

As to `NNC(=O)CCCCCCC(=O)NO` [Compound 7], the “induction of histone H3K9 acetylation (H3K9ac)” value (“induction … (H3K9ac)” for short) in data set [1] is “No induction”. In addition, the “induction of histone H4K12 acetylation (H4K12ac)” value (from here on “induction … (H4K12ac)”) in data set [2] is recorded as “No induction”.

For the compound `COc1cc(O)cc(OC)c1/C=N/NC(=O)CCCCCC(=O)NO` [Compound 9k], the “induction … (H3K9ac)” value in data set [1] was “least potent”. Further, the “induction … (H4K12ac)” value in data set [2] was “least potent”.

In the case of `O=C(CCCCCC(=O)N/N=C/c1ccc(-c2cccnc2)cc1)NO` [Compound 9f, neurinostat], the “induction … (H3K9ac)” value in data set [1] is “most potent”. Besides, the “induction … (H4K12ac)” value in data set [2] is given as “most potent”. Further, the “activity toward HDAC5” value at HDAC5 is listed as “no activity”. The plasma maximum concentration in data set [3] (intraperitoneal 25 mg/kg, peripheral blood) was 1.9 µM. The “brain-to-plasma ratios relative to those measured for crebinostat (9b)” value in data set [3] (time points 0.5, 1 and 2 hours) is on record as “about twice”.

Turning to `O=C(CCCCC(=O)N/N=C/c1ccc(-c2ccccc2)cc1)NO` [Compound 9a], in data set [4] (HDAC1, 2 or 3), the “fold increase in IC50's over those of crebinostat (9b)” value is reported as “approximately 20 fold”.

With `NNC(=O)CCCCCC(=O)NO` [Compound 3b], the “induction … (H3K9ac)” value in data set [1] is “No induction”. In data set [2], the “induction … (H4K12ac)” value is “No induction”.

For the compound `COc1ccc(Br)c(/C=N/NC(=O)CCCCCC(=O)NO)c1` [Compound 9j], the “induction … (H3K9ac)” value in data set [1] is given as “more effective”. The “induction … (H4K12ac)” value in data set [2] is on record as “more effective”.

Consider `O=C(CCCCCC(=O)N/N=C/c1ccc(-c2ccccc2)cc1)NO` [Compound 9b, crebinostat], for which the “induction … (H3K9ac)” value in data set [1] is reported as “greater increases; also recorded: more effective”. Moreover, the “induction … (H4K12ac)” value in data set [2] is on record as “greater increases; also recorded: more effective”. Moreover, on HDAC5, the “activity toward HDAC5” value is “no activity”. Further, the “brain Cmax” value in data set [5] is listed as 60 nM. For the same compound, the “fold reduction in IC50 versus SAHA” value in data set [4] (HDAC1, 2 or 3) is reported as greater than 5 fold.

For the compound `NNC(=O)CCCCC(=O)NO` [Compound 3a], the “induction … (H3K9ac)” value in data set [1] is listed as “No induction”. The “induction … (H4K12ac)” value in data set [2] is “No induction”.

Regarding `O=C(CCCCCCC(=O)N/N=C/c1ccc(-c2ccccc2)cc1)NO` [Compound 9c], the “induction … (H3K9ac)” value in data set [1] is given as “greater increases”. Besides, the “induction … (H4K12ac)” value in data set [2] is reported as “greater increases”. The “fold improved potency for inhibiting HDAC1-3 versus crebinostat (9b)” value in data set [4] (HDAC1-3, biochemical reaction) was ~ 2 fold.
